Biological target: Sepiapterin reductase (Homo sapiens, UniProt P35270)
Experiment: Inhibition of sepiapterin reductase (unknown origin)
Settings: not given

Sequence of Sepiapterin reductase (P35270 whole entry): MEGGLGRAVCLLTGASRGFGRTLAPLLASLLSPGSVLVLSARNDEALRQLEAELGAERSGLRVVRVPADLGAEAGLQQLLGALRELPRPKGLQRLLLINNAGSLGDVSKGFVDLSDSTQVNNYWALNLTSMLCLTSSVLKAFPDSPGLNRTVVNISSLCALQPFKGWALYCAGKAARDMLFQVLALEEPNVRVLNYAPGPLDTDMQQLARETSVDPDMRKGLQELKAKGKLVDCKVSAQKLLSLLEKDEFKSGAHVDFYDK

pIC50	SMILES
5.39	CCOC(=O)C1=C(O)C2(CCC(=CC(=O)OC)CC2)c2ccc(Cl)cc2C1=O (stereo not given)

Same assay, conditions: read-out: IC50

SMILES	IC50 [nM]
Cc1nn(-c2ccccn2)c2ncc(C(=O)N(C)C)cc12	> 19000
Cc1n[nH]c2ncc(C(=O)c3cc(F)ccc3O)cc12	50
Cc1nn(C2CCOC2)c2ncc(C(=O)c3ccccc3O)cc12 (stereo not given)	30
Cc1nn(-c2ccccn2)c2ncc(C(=O)O)cc12	> 19000
Cc1nn(C2CCOCC2)c2ncc(C(=O)c3ccccc3O)cc12	20

Further lines, results first:

IC50 [nM]	SMILES
40	Cc1nn(C)c2ncc(C(=O)c3cc(F)ccc3O)cc12
40	Cc1nn(-c2ccccn2)c2ncc(C(=O)c3cc(F)ccc3O)cc12
> 19000	COc1ccc(O)c(C(=O)c2cnc3c(c2)c(C)nn3-c2cccc(C)c2)c1
50	Cc1nn(CCO)c2ncc(C(=O)c3cc(F)ccc3O)cc12
> 19000	Cc1ccc(O)c(C(=O)c2cnc3c(c2)c(C)nn3-c2ccc(F)cc2)c1
2500	COc1ccc(O)c(C(=O)c2cnc3c(c2)c(C)nn3C)c1
80	Cc1nn(-c2ccccn2)c2ncc(C(=O)c3cc(Cl)ccc3O)cc12
140	Cc1nn(-c2ncccn2)c2ncc(C(=O)c3ccccc3O)cc12
20	Cc1nn(C2CCCS2(=O)=O)c2ncc(C(=O)c3cc(F)ccc3O)cc12 (stereo not given)
80	Cc1nn(C)c2ncc(C(=O)c3ccccc3O)cc12
1720	Cc1ccc(O)c(C(=O)c2cnc3c(c2)c(C)nn3-c2ccccn2)c1
40	Cc1nn(CCO)c2ncc(C(=O)c3cc(Cl)ccc3O)cc12
180	Cc1nn(-c2ccccc2)c2ncc(C(=O)c3cc(F)ccc3O)cc12
> 19000	COc1ccc(O)c(C(=O)c2cnc3c(c2)c(C)nn3-c2cccc(Cl)c2)c1
> 19000	Cc1ccc(O)c(C(=O)c2cnc3c(c2)c(C)nn3-c2ccccc2)c1
> 19000	Cc1ccc(-n2nc(C)c3cc(C(=O)c4cc(C)ccc4O)cnc32)cc1
180	Cc1nn(-c2ccccn2)c2ncc(C(=O)c3ccccc3O)cc12
17000	COc1ccc(O)c(C(=O)c2cnc3c(c2)c(C)nn3-c2ccccc2)c1
50	Cc1nn(-c2ccccc2F)c2ncc(C(=O)c3ccccc3O)cc12
970	Cc1ccc(O)c(C(=O)c2cnc3c(c2)c(C)nn3C)c1
820	Cc1nn(-c2ccc(F)cc2)c2ncc(C(=O)c3ccccc3O)cc12
860	Cc1nn(-c2ccccc2)c2ncc(C(=O)c3ccccc3O)cc12
140	Cc1nn(-c2ccncn2)c2ncc(C(=O)c3ccccc3O)cc12
1360	Cc1cccc(-n2nc(C)c3cc(C(=O)c4ccccc4O)cnc32)c1
50	Cc1ccnc(-n2nc(C)c3cc(C(=O)c4ccccc4O)cnc32)c1

Same assay, conditions: read-out: pIC50 (converted)

IC50 [nM]	SMILES
7940	CCOC(=O)CNCc1c(C(=O)CC)c2cc(OC)c(Br)cc2n1C
8130	Cc1ccc(C(=O)c2ccccc2O)c(O)n1
3020	O=C(Nc1nc2ccc(CN3CCCCC3)cc2n1[C@H]1CC[C@@H](C(=O)O)CC1)c1ccc(F)cc1
603	O=S(=O)(Nc1ccccn1)c1ccc2c(c1)OCCO2
6760	CCOC(=O)c1c(C)n(C)c2cc(Nc3ccccc3)c(O)cc12
3240	CC1(C)C(O)=C(C(N)=O)C(=O)c2cc(C(=O)NCCc3ccccc3)ccc21
9120	O=C(CN(c1cccc(Cl)c1)S(=O)(=O)c1cccnc1)N[C@H]1CC[C@H](n2c(=O)[nH]c3ccccc32)CC1
324	Cc1cc(C(=O)C2C(=O)CC(C)CC2=O)c(C)c2c1S(=O)(=O)CCc1cn(C)nc1-2 (stereo not given)
4370	Cn1nc(-c2cccnc2)c2c1NC(=O)C[C@@H]2c1ccc2cccc(O)c2n1
66.1	Cc1nn(-c2ccccn2)c2ncc(C(=O)c3ccccc3O)cc12
575	O=S(=O)(Nc1nccs1)c1ccc2c(c1)OCCN2CCc1ccncc1
7590	FC(F)(F)Oc1cccc(-n2nnnc2N2CCN(c3ncnc4sc5c(c34)CCC5)CC2)c1
2950	CCCc1cc(C(=O)N2CCC(C3Nc4ccccc4S(=O)(=O)N3)CC2)[nH]n1 (stereo not given)
9550	O=C(O)c1ccc2c(C(c3ccc(Cl)cc3Cl)c3c[nH]c4cc(C(=O)O)ccc34)c[nH]c2c1
9550	O=C(Nc1cccc(C(F)(F)F)c1)N1CCC(S(=O)(=O)Nc2nccs2)CC1
1780	COc1cc(C(F)(F)F)ccc1-c1nccc2cc(S(=O)(=O)Nc3ccc(F)cn3)ccc12
1780	COc1cc(C(F)(F)F)ccc1-c1nc(Cl)cc2cc(S(=O)(=O)Nc3nccs3)ccc12
57.5	CCn1ncc(C(=O)c2cc(Cl)c(N(C)S(=O)(=O)N(C)C)cc2OC)c1O
6170	CC1(C)C=Cc2c(c(CCO)c3occ(-c4ccc(O)c(O)c4)c(=O)c3c2O)O1

Reference: ChEMBL document CHEMBL4602609, “Virtual screening to identify potent sepiapterin reductase inhibitors” (Bioorg Med Chem Lett, 2020)
